From patent US20230145868A1, “UREA INHIBITORS OF MICRO-RNA” (Board of Regents, The University of Texas System, priority 2020, published 2023) come the findings set out here.

A short description of data set [1]: Microsomal stability assay, human. Particulars: pH 7.4; human liver microsomes; 1 μM test compound; unit printed in b356 only. The class given is in vitro ADME. The protocol:
The liver microsomal incubation mixture was composed of liver microsomes (with a concentration of 0.5 mg microsomal protein/ml), the test compound (1 μM), MgCl2 (3 mM), EDTA (1 mM) in potassium phosphate buffer (100 mM, pH 7.4). Control substrates used were Midazolam and Ketanserin. The reaction was initiated with the addition of an NADPH regeneration solution (1.3 mM NADPH) and maintained at 37° C. with shaking. At five sequential time points ranging from 0 to 45 min, aliquots of the mixture (50 μL) were removed and quenched with acetonitrile (100 μL) containing an internal standard control (imipramine) Samples were analyzed after vortexing and centrifugation by liquid chromatography-mass spectrometry (LC-MS/MS). The in vitro t1/2 was then calculated and clearance followed literature.

The next data set deals with U251 cell line. Kind of data set: MTS proliferation assay, U251. The class given is cell-based, human. Particulars: 5 and 10 μM, beginning at 48 h of treatment. As for the experimental part:
(§1) IC50 dose-response curves were determined using the cell proliferation assay system. Briefly, 5,000 or 10,000 cells of each cell line were plated in 96-well microculture plates in replicates of either 4 or 6. When cells became adherent, either 5 or 10 sequentially decreasing doses of the small molecule miRNA inhibitor were diluted into new media and added to individual wells. After either 24 or 48 hours, of a tetrazolium salt such as MTS, MTT, or WST-8 was added to each well at the same time of day as treatment and incubated for either 2 or 3 h at 37° C. The OD, measuring at the appropriate wavelength for the dye, was read at on a microplate spectrophotometer.
(§2) Cell proliferation is determined using a colorimetric assay. A tetrazolium salt such as MTS, MTT, or WST-8 is reduced by dehydrogenase activities in cells to give a formazan dye, which is soluble in the tissue culture media. The amount of the formazan dye (generated by the activities of dehydrogenases in cells, and directly proportional to the number of living cells) is measured after 3 h of incubation. The OD is read at 450 nm on a microplate spectrophotometer and growth values (%) are calculated as (OD treated cells/OD untreated cells)×100. The experiments are performed in triplicate. […] The OD is read at 450/550 nm on a microplate spectrophotometer, after one to seven days of the treatment. […]

In the next data set the test system is LN229 cell line. Briefly: MTS proliferation assay, LN229. It counts as cell-based, human. The settings on record: 5 and 10 μM, beginning at 48 h of treatment. The protocol: as §1, §2
On the technique in general: Formazan colour is commonly taken as a measure of viable cells.

For data set [2], the system named is U251 brain cancer cell line. Kind of data set: Cell cycle analysis via flow cytometry. It counts as cell-based, human. The settings on record: 5 μM. The protocol:
In 6-well plates, 1×10^5 cells/mL were added into each well. After 24 h, sequential concentrations of DMSO and 4 based were administered and the plates were incubated for 48 h. The supernatant and adherent cells were collected and centrifugated. Each dose was done in triplicate, with each sample composing two wells. For apoptosis analysis, the supernatant was discarded after centrifugation and the pellet washed with PBS twice. Then, BD Annexin V-FITC/PI used to stain the cells for analysis via flow cytometry on the Gallios machine. For cell cycle analysis, after washing with PBS, cells were fixed with ethanol and incubated. They, were treated with RNase enzyme and analyzed.
Background: In flow cytometry, cells or beads pass a laser one at a time.

Another data set deals with VEGF. Briefly: Western blot, VEGF expression. The class given is cell-based, human. The settings on record: LN229 and U251 brain cancer cell lines. As for the experimental part:
(§3) Proteins are collected from cultured cells and lysed with 10× Lysis Buffer (Cell Signaling) freshly supplemented with a complete protease inhibitor cocktail and phosphatase inhibitors (Sigma). Bradford assay is used to measure protein concentration. Proteins are separated by polyacrylamide gel (Bio-rad) electrophoresis and were transferred to a 0.2 μm nitrocellulose membrane (Bio-rad). Quantification of protein expression was conducted using the image analysis software ImageJ.

In the next data set the test system is PDGF. Briefly: Western blot, PDGF expression. It counts as cell-based, human. Particulars: LN229 and U251 brain cancer cell lines. As for the experimental part: as §3
The next data set concerns Dicer. Briefly: Western blot, Dicer expression. It counts as cell-based, human. The settings on record: AsPC1, AGS, U251, LN229. As for the experimental part: as §3
(In general: A western blot detects proteins with antibodies after separation by electrophoresis.)

For data set [3], the system named is human pre-miR-10b RNA hairpin. Kind of data set: NMR detection of compound binding to miRNA. As for the experimental part:
The human pre-miR-10b RNA hairpin sequence (nucleotides 40-75, per miRbase) was transcribed enzymatically and purified using methods previously described. The NMR screening buffer consisted of 20 mM Bis-Tris-d19 at pH 6.5, 10 mM NaCl, 0.2% Tween-20, and 11.1 μM DSA as chemical shift reference (integrates to 100 μM), prepared in 99.99% D2O or 95%H2O/5%D2O. Each ligand was first dissolved in DMSO to a 10 mM stock concentration. Free ligand screening samples were prepared at a final DMSO concentration of […] at a concentration of 100 μM in NMR screening buffer. For RNA target detected experiments, the lyophilized RNA pellets were dissolved in DMSO-free NMR screening buffer and heated for 4 min at 90° C., then snap cooled for 5 min at −20° C. ^1D-^1H experiments for both ligand and RNA were collected using the Bruker “zgesgp” excitation sculpting pulse sequence to suppress background water signal. Data was collected with 64 scans and 16K data points. Data was processed using 16K zero points, then Fourier transformed followed by manual phase and baseline correction. 2D-^1H TOCSY experiments were collected using the Bruker “mlevesgpph” pulse sequence with excitation sculpting water suppression, data collected with 32 scans, 2K×512 data points, a recycle delay of 1.2 s, and spin-lock mixing time of 80 ms. […]

The test system of data set [4] is proteins on the PI3K/AKT pathway. Kind of data set: Reverse phase protein array (RPPA), PI3K/AKT pathway. The class given is cell-based, human. Particulars: U251; 10 μM (FIG. 23); p<0.01. The protocol:
Proteomics analysis was conducted at the Reverse Phase Protein Array Core facility at MD Anderson Cancer Center. Briefly, controls and treated samples were analyzed in triplicate for 486 unique antibodies. The outputs were then normalized for protein loading and transformed to the linear value, and the normalized data was logy transformed (log2(x+1)) and sorted by FDR-adjusted p-values with a significance level of p<0.05. Differentially expressed proteins between groups were identified using the moderated t-test from LIMMA package. […] Analyses and graphical representations were carried out in R. When preparing the data for analysis, the loge fold change was calculated and adjusted p-value was used for analysis. Gene symbols were converted using the DAVID bioinformatics resource and the clusterProfiler data visualization and analysis package was used for pathway enrichment analysis. For pathway analysis, the Hallmark gene set and Gene Ontology was used for gene set and pathway enrichment.

On to `Cc1ccc(F)c(NC(=O)Nc2ccc(-c3cccc4cn[nH]c34)cc2)c1` [Example 4, 1-(4-(1H-indazol-7-yl)phenyl)-3-(2-fluoro-5-methylphenyl)urea], for which, in data set [1], the CLint scaled at 1 μM was 0.894 L/h/kg and the half-life at 1 μM was 1.93 h. Besides, in the data set on U251 cell line, the “proliferation (MTS), every 24 h over 96 h” value is “significant difference in proliferation”. For the same molecule, in the data set with LN229 cell line, the “proliferation (MTS), every 24 h over 96 h” value was “significant difference in proliferation”. Moreover, the “cell cycle phase distribution” value in data set [2] is listed as “clear increase shown at the G2/M phase”. Besides, in the data set on VEGF, the “VEGF expression (Western blot)” value was “low to very slight variations”. The “PDGF expression (Western blot)” value in the data set with PDGF is recorded as “low to very slight variations”. The “Dicer expression (Western blot)” value in the data set on Dicer was “little to no variation”. In addition, the “target detect 2D 1H-1H TOCSY, binding to pre-miR-10b” value in [3] (50 μM pre-miR-10b titrated with 100 μM, largest shifts U6, U7, U8, U26, C27, C29, U33) is given as “directly binds to the hairpin structure of precursor miR-10b”. Besides, the “ligand detected 1D-1H line broadening (peak signal free vs bound)” value in data set [3] (ligand with pre-miR-10b sequence, methyl protons, indicative of direct binding) is listed as “large decrease in peak signal”. The “expression of proteins on the PI3K/AKT pathway (RPPA)” value in data set [4] is on record as “ten of the twelve proteins showing significant downregulation”.

The CLint scaled is a measure of how fast metabolising enzymes remove a compound, apart from limits set by blood flow. One may read the half-life as how long it takes for the measured level to halve. Low readings indicate rapid decline, high ones slow decline.
